Measured values published in patent publication US9796674B2, “Benzyl urea derivatives for activating TGF-beta signaling” (THE BOARD OF TRUSTEES OF THE LELAND STANFORD JUNIOR …, priority 2013, dated 2017).

Tests used:
TGF-β signaling = assay: Bioluminescence in SBE-luc reporter mice; type: in vivo, mouse; conditions: brain/CNS bioluminescence
Method: The most promising compounds out of these screens were tested for their neuroprotective potential in B103 rat neuroblastoma cells and primary mouse neurons derived from E16 forebrains. Compounds were also tested for their capacity to reduce varicosities and tortuosity in primary mouse neurons. Accordingly, novel neuroprotectant small molecules have been identified that are as potent or better than TGF-β. Importantly, they fulfilled the critical neuroprotective properties in neuronal cell lines and primary hippocampal mouse neurons. • Compounds based on the 11H core: The present compositions and methods include salts of the active compounds and formulations, in particular pharmaceutically acceptable compositions for administration to an animal or human subject and containing active compounds. 129 analogs or derivatives of 11H were screened by a cell-based assay for their ability to increase TGF-β activity, i.e. to act as a TGF agonist. In particular, one compound (a) designated as SRI-011381 (381) was identified as especially advantageous, although active derivatives thereof are contemplated and have been identified. • Effects of TGF-β analogs in vitro: Some of the small-molecule TGF-β agonist compounds were tested for neuroprotection activity and toxicity in vitro (cell culture). In addition, the mechanism of action of the agonists was explored using cells with different genetic backgrounds with respect to protein of the […] signaling pathway. • Animal studies: Transgenic mice harboring the SBE-luc reporter gene were generated and used to test the derivatives of compound 11H in vivo. These “reporter mice” mice express SBE-luc (i.e., “the transgene”) in all cells of the body. Intraperitoneal injection of luciferin into SBE-luc-expressing mice produces bioluminescence generated by luciferase and photons penetrating the skull can be imaged using sensitive camera systems.
SBE-luciferase transgenic mice: Two-month old SBE-luciferase transgenic mice receive different concentrations of a test compound either s.q., ip., or orally by gavage. […] Following administration of the test or control compounds, mice are injected with luciferin ip. At, for example, 2, 8, and 16 hours following injection of luciferin, the mice are imaged to detect bioluminescence as described above. Brains may be harvested 16 hours following test compound injection, and may be divided sagittally. For example, one hemi-brain can be homogenized in luciferase assay buffer for measurement of reporter gene activation, while the other hemi-brain can be frozen at −70° C. for future study, including sectioning into individual brain regions

hippocampal neurons = assay: Aβ-induced neuritic dystrophy in primary hippocampal neurons; type: cell-based, mouse; conditions: for average numbers of dystrophic neurites per neuron: 21-22 DIV, 5 μM Aβ, 48 h
Method: Primary hippocampal neurons isolated from E16 CF1 embryos were aged for 6-7 days or 21-22 days, then challenged with 5 μM oligomeric Aβ in the presence or absence of compounds, and assayed for neurotoxicity (cell survival as above) or neuritic dystrophy, respectively. For quantification of neuritic dystrophy, fixed cells were immune-stained with a MAP-2 monoclonal antibody to label dendrites.
Primary hippocampal neurons were isolated from E16 CF1 embryos. Twenty-four-well culture plates were coated with 10 μg/ml poly-L-lysine. Cells were seeded overnight at a density of 30,000 cells/well in DMEM/F-12 medium supplemented with 10% FBS and penicillin/streptomycin, and subsequently maintained in Neurobasal medium containing 2% B27 supplement. Cells were aged for 6-7 days or 21-22 days, then challenged with 5 μM Aβ in the presence or absence of compounds, and assayed for neurotoxicity or neuritic dystrophy, respectively. Cells were treated for 72 h for neurotoxicity assay and 48 h for neuritic dystrophy assay. At the end of treatment, an equal volume of 4% PFA was added, plates incubated at room temperature for 15 min and then washed three times with DPBS. Cells were kept in the last wash of DPBS at 4° C. until being counted or stained.
For quantification of neuritic dystrophy, fixed cells were immunostained with a MAP-2 monoclonal antibody (Sigma-Aldrich). […] MAP2 positive dendrites were observed under an inverted fluorescence microscope (Olympus). […] To quantify neurite curvature, an established method was modified for assessment of neurite curvature. Neurite tracks were digitized and approximated by a series of connected line segments using ImageJ (NIH). The angle of each segment was determined using a Sigmaplot macro, and the results were averaged to give the ‘mean differential curvature’. This parameter reflects the degree of neurite curvature with an increasing value indicating increased curvature. Neurite counting and quantification were performed in randomly selected fields (5 fields/well). All quantitative assessments were done by investigators blinded with respect to treatment conditions.

B103 neuroblastoma cells = assay: B103 live/dead cell assay with Aβ; type: cell-based, rat; conditions: Aβ 24 h; added 2 h before Aβ
Method: SRI-11381 is neuroprotective in vitro: To determine if the TGF-β-inducing capacity of SRI-011381 would translate into biologically beneficial effects, its neuroprotective potential was tested in B103 rat neuroblastoma cells and primary mouse neurons derived from E16 forebrains. B103 neuroblastoma cells were cultured in 24-well plates and exposed to an oligomeric preparation of Aβ together with compounds or recombinant TGF-β.
FIGS. 3A-3H illustrate that SRI-011381 protects cultured neurons from Aβ toxicity. B103 neuroblastoma cells were incubated with Aβ for 24 h. The compounds and TGF-β were added 2 h before Aβ. Following incubations live and dead cells were assessed with calcein-acetoxymethylester (CAM) and SYTOX Orange (Invitrogen), respectively.
B103 neuroblastoma cells: B103 neuroblastoma cells were cultured in Dulbecco's modified Eagle's medium containing 10% fetal calf serum and 1% v/v penicillin/streptomycin (Invitrogen) in a 5% CO2: 95% air atmosphere. 10^4 cells/well were seeded onto 24 well plates and cultured for 24 h before Aβ was added. The compounds and TGF-β were added 2 h before Aβ. Following a 24 h incubation with Aβ, live and dead cells were assessed using calcein-acetoxymethylester (CAM) and SYTOX Orange (Invitrogen), respectively. AM is a membrane-permeable, fluorogenic esterase substrate that is hydrolyzed intracellularly to a green fluorescent product (calcein) in live cells. SYTOX Orange is a high-affinity nucleic acid stain that easily penetrates cells with compromised plasma membranes and yet will not cross the membranes of live cells. After incubation with SYTOX Orange, the nucleic acids of dead cells fluoresce bright orange. […] Five fields were randomly selected from each well and the cell numbers were analyzed by ImageJ (NIH) in a blinded fashion.

| Molecule | activation of TGF-β signaling in SBE-luc reporter mice (TGF-β signaling) | average numbers of dystrophic neurites per neuron (hippocampal neurons) | Aβ-induced cell death (B103 neuroblastoma cells) | Aβ-induced increase in neurite curvature (mean differential curvature) (hippocampal neurons) |
| --- | --- | --- | --- | --- |
| C/C(=C\c1ccccc1)CN(CC1CCNCC1)C(=O)NC1=CCC=CC1 [Compound 11H, reference compound] | penetrate into the CNS and activate TGF-β signaling | markedly reduced | – | – |
| TGF-β1: Transforming Growth Factor-β, recombinant cytokine used as comparator | – | markedly reduced | inhibit Aβ-induced cell death | prevented |
